We go through 9 molecules from PubChem BioAssay (NCI).

Test systems include ACHN renal; EKVX NSCLC; HS 578T breast; LOX IMVI melanoma; MALME-3M melanoma; MCF7 breast; NCI-H226 lung; NCI-H23 lung; PC-3 prostate; SF-295 CNS; SNB-19 CNS; SNB-75 CNS.
Holding throughout (assay): NCI tumour cell line growth inhibition, 48 h

SMILES strings stand for the structures.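 Cultured in 96-well plates, cells were exposed to test compound for 48 hours across five concentrations. GI50: concentration for 50% inhibition of growth. TGI marks complete inhibition of growth.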

With `COc1cccc2c1C(=O)c1c(O)c3c(c(O)c1C2=O)C[C@@](O)(/C(C)=N/NC(=O)c1ccccc1)C[C@@H]3OC1CC(N)C(O)C(C)O1` (stereo not given in full), the TGI was found to be 0.975 µM with ACHN renal; 3.02 µM with EKVX NSCLC; 1.82 µM in the assay on HS 578T breast; 0.709 µM with LOX IMVI melanoma; 1.3 µM with MALME-3M melanoma; 2.93 µM in the assay on MCF7 breast. For the same molecule, the TGI in the assay with NCI-H226 lung is 0.786 µM; with NCI-H23 lung, 1.54 µM; in the assay on PC-3 prostate, 1.75 µM; with SF-295 CNS, 1.84 µM; in the assay on SNB-19 CNS, 7.86 µM; in the assay on SNB-75 CNS, 1.97 µM.
As to `COc1ccc(CCCC(=O)O)c(C)c1`, the TGI with ACHN renal was over 100 µM; in the assay on EKVX NSCLC, over 100 µM; in the assay on HS 578T breast it was over 100 µM; with LOX IMVI melanoma, over 100 µM; with MALME-3M melanoma, over 100 µM; in the assay with NCI-H226 lung, 91.1 µM. The TGI in the assay on NCI-H23 lung, in the assay with PC-3 prostate, with SF-295 CNS and in the assay on SNB-19 CNS was over 100 µM throughout.
Take `Nc1nc(N)c2nc(-c3ccco3)cnc2n1`: the TGI in the assay on ACHN renal, with EKVX NSCLC, in the assay with LOX IMVI melanoma, in the assay with MALME-3M melanoma, with NCI-H226 lung and in the assay with NCI-H23 lung was over 100 µM each time. Besides, the TGI in the assay on SF-295 CNS was over 100 µM; with SNB-19 CNS, over 100 µM; in the assay on SNB-75 CNS, 80 µM.
As to `COc1cc2cc(C(=O)N3CC(CCl)c4c3cc(N(C)C)c3ccccc43)[nH]c2c(OC)c1OC` (stereo not given), the TGI in the assay on ACHN renal was over 100 µM; in the assay on EKVX NSCLC it was 0.0245 µM; with HS 578T breast it was 0.135 µM; in the assay on LOX IMVI melanoma, 1.86 µM; in the assay with MALME-3M melanoma it was 0.0976 µM; in the assay on NCI-H23 lung, 0.0127 µM. For the same molecule, the TGI in the assay with PC-3 prostate came out at 0.18 µM; in the assay on SF-295 CNS, 0.0381 µM; in the assay with SNB-19 CNS it was 10.6 µM; with SNB-75 CNS, 0.0252 µM.
For the molecule `NC(Cc1c[nH]c2ccccc12)C(=O)O` (stereo not given), the TGI with EKVX NSCLC, in the assay on LOX IMVI melanoma, with MALME-3M melanoma, in the assay on MCF7 breast, in the assay with NCI-H226 lung and in the assay with NCI-H23 lung was over 300 µM in each case. Moreover, the TGI with SF-295 CNS, in the assay with SNB-19 CNS and with SNB-75 CNS was over 300 µM in each case.
For `CC12CC3(O)OC(O1)C1(COC(=O)c4ccccc4)C3CC21OC1OC(CO)C(O)C(O)C1O` (stereo not given), the TGI with ACHN renal, in the assay on EKVX NSCLC, with HS 578T breast, with LOX IMVI melanoma, with MALME-3M melanoma and in the assay with MCF7 breast was over 100 µM in each case. The TGI in the assay on NCI-H226 lung, in the assay on NCI-H23 lung, with PC-3 prostate, with SF-295 CNS and in the assay on SNB-19 CNS was over 100 µM each time.
As for `Clc1ccc2c(NCCNc3ccnc4cc(Cl)ccc34)ccnc2c1`, the TGI in the assay with ACHN renal is 32.7 µM; with EKVX NSCLC it was 41.4 µM; in the assay on HS 578T breast it was over 100 µM; in the assay on LOX IMVI melanoma, 34.1 µM; with MALME-3M melanoma, over 100 µM; in the assay on MCF7 breast, 36 µM. Besides, the TGI was 62.5 µM with NCI-H226 lung; 33.2 µM in the assay on NCI-H23 lung; 34.5 µM in the assay with PC-3 prostate; 26.2 µM in the assay with SF-295 CNS; 50.2 µM in the assay on SNB-19 CNS; 50.3 µM in the assay on SNB-75 CNS.
For the molecule `CC[C@@]1(O)C(=O)OCc2c1cc1n(c2=O)Cc2c-1nc1ccccc1c2/C=N\NC(=O)C(N)Cc1cnc[nH]1` (stereo not given in full), the TGI in the assay on ACHN renal is 1.18 µM; in the assay with EKVX NSCLC, over 100 µM; in the assay with HS 578T breast, over 100 µM; with LOX IMVI melanoma, 3.37 µM; with MALME-3M melanoma, over 87.1 µM; in the assay on MCF7 breast it was 35.3 µM. The TGI is 16.5 µM in the assay with NCI-H226 lung; 2.45 µM in the assay with NCI-H23 lung; over 100 µM in the assay on PC-3 prostate; over 100 µM with SNB-19 CNS; 36.5 µM in the assay with SNB-75 CNS.
As to `COc1cc(/C=C2\CN(S(=O)(=O)c3ccc(C)cc3)C/C(=C\c3cc(CN4CCCCC4)c(O)c(OC)c3)C2=O)cc(CN2CCCCC2)c1O`, the GI50 with ACHN renal was 1.44 µM; in the assay with EKVX NSCLC, 1.98 µM; in the assay on HS 578T breast, 1.92 µM; in the assay on MCF7 breast it was 0.375 µM; in the assay on NCI-H226 lung it was 1.76 µM; with PC-3 prostate, 1.87 µM. For the same molecule, the GI50 is 2.26 µM with SF-295 CNS and 1.64 µM in the assay on SNB-75 CNS. The TGI with ACHN renal is 2.74 µM; in the assay with EKVX NSCLC, 4.58 µM; in the assay on HS 578T breast it was 4.5 µM; with MCF7 breast, 2.39 µM; with NCI-H226 lung it was 4.29 µM; with PC-3 prostate it was 4.75 µM. Further, the TGI in the assay on SF-295 CNS was 5.15 µM; with SNB-75 CNS it was 3.41 µM.
